Data: patent US9359196B2, “Antiproliferative compositions comprising curcumin analogs and methods of producing and using same” (The Board of Regents of the University of Oklahoma, priority 2009, dated 2016)

How the values were obtained:
[1] = tested on: normal lung fibroblasts LL-24; assay: In vitro anti-proliferative activity in normal lung fibroblasts LL-24; assay type: cell-based; conditions: LL-24, identical treatment conditions (10 μM, 24 h)
Procedure: Human lung adenocarcinoma cell line NCI-H441 (ATCC # HTB-174) and normal lung fibroblasts LL-24 (ATCC #CCL-151) were obtained from American Type Culture Collection (Manassas, Va.). The cells were maintained at 37° C. with 5% CO2 in RPMI 1640 medium (Invitrogen, Carlsbad, Calif.). The medium was supplemented with 10% heat-inactivated fetal bovine serum and 50 μg/ml of gentamicin (GIBCO Laboratories, Grand Island, N.Y.). For cell proliferation assay, the cells were seeded in 96-well flat-bottom tissue culture plates at a density of 0.5−1×10^4 cells per well. The cells were allowed to adhere and grow overnight, followed by treatment with CLEFMA or CLEFMA-liposomes. The concentration of CLEFMA was maintained in the range of 0.1-25 μM in 100 μl of RPMI 1640 medium. For comparison, the cells were also treated with 1 and 10 μM natural curcumin and EF24. EF24 is a potent synthetic curcuminoid and a close analog of CLEFMA [Adams et al., 2004]. All solutions of plain drugs were made in dimethylsulfoxide (DMSO). The concentration of DMSO in the treatment medium was maintained at 0.1%. The control wells received equivalent amounts of DMSO or phospholipid-matched control liposomes. Inhibition of cell proliferation was determined by measuring a decrease in hexosaminidase activity as described by Landegren [Landegren, 1984]. […]

[2] = tested on: H441 cells; assay: Cell proliferation assay in H441 cells (hexosaminidase), Example 3; assay type: cell-based, human
Procedure: Cell proliferation assay: CLEFMA was synthesized and analyzed for purity by the methods detailed elsewhere. Doxorubicin (DOX, GBiosciences, Maryland Heights, Mo.), Paclitexal (PAX, EMD Chemicals, Gibbstown, N.J.), Curcumin (CUR, Sigma, St. Louis, Mo.) and Gemcitabine (GMCB, Acros Organics, Morris Plains, N.J.) were obtained from commercial sources. For cell proliferation assays, the cells were seeded in 96-well, flat-bottom tissue culture plates at a density of 5,000 cells per well. The cells were allowed to adhere and grow overnight, followed by their treatment with drugs (0-20 μM). All drugs were added as solutions in dimethylsulfoxide (DMSO) filtered through 0.2-μm nylon filters; control wells received identical amounts of DMSO without any drugs. The inhibition of cell proliferation was determined after 24-48 h by measuring the decrease in hexosaminidase activity as described by Landegren [Landegren, 1984]; para-nitrophenol-N-acetyl-beta-D-glucosaminide was used as a substrate for the hexosaminidase enzyme. To assess the effect of antioxidants, the cells were simultaneously treated with catalase (CAT, 1000 U), superoxide dismutase (SOD, 500 U) and N-acetylcysteine (NAC, 1 mM). A non-toxic concentration of CAT (Worthington, N.J.), SOD (Sigma, St. Louis, Mo.) and NAC (Enzo Life Sciences, Plymouth Meeting, Pa.) was established in H441 cells prior to these experiments.

[3] = Histopathology of liver, lung and kidney; assay type: in vivo; conditions: rats treated with CLEFMA liposomes
Excerpt: After the animals were euthanized, a part of the liver, lung and kidney were fixed in 10% formalin. The formalin-preserved tissues were used for histology by staining 5 μm sections of paraffin-embedded tissues with H&E stain. The sections were read by a veterinary pathologist (OUHSC, Oklahoma City) in a blinded fashion for the presence of necrosis, hemorrhage, inflammation or any other pathological changes.

[4] = tested on: H441 cells; assay: GSH/GSSG assay in H441 cells; assay type: cell-based, human; conditions: 12 and 24 h
Procedure: Glutathione-to-glutathione disulfide (GSH/GSSG) assay: In order to assess the effect of CLEFMA on cellular GSH levels, a kit from Oxford Biomedical Research (Oxford, Mich.) was used and followed a modification of the method reported elsewhere (NCL Method GTA-3, Nanotechnology Characterization Lab, Frederick, Md.). H441 were seeded in a 12-well plate (1 million cells/well) and treated with CLEFMA for 12 and 24 h. The medium was removed and the cell layer was washed twice with ice-cold PBS. After adding 100 μl of ice-cold 5% m-phosphoric acid, the cells were scraped into a microfuge tube and centrifuged at 1000×g at 4° C. for 10 min. The supernatant was removed to a fresh tube for the GSSG and GSH assays. For the GSSG determination, approximately 30 μl supernatant was mixed with 20 μl thiol scavenger and 130 μl ice-cold assay buffer, and for the GSH assay, approximately 5 μl of the supernatant was diluted in 180 μl with ice-cold assay buffer. […] The plate was read in a microplate reader at 405-414 nm at 0 and 10 min after DTNB was added. The GSH and GSSG concentrations were determined following a linear regression analysis and normalized to total protein. The ratio (GSH−2GSSG)/GSSG was calculated and expressed as the percent of untreated control cells.

[5] = tested on: CCL-151 normal lung fibroblasts; assay: Reactive oxygen species assay (DCFH-DA) in CCL-151 normal lung fibroblasts; assay type: cell-based
Procedure: Reactive oxygen species (ROS) assay: The CLEFMA-induced generation of ROS in H441 and CCL-151 cells was measured using the OxiSelect assay kit (Cell Biolabs, Inc., San Diego, Calif.). Briefly, the cells were cultured in 96-well plates, and the cell-permeable fluorogenic probe 2′,7′-dichlorodihydrofluorescin diacetate (DCFH-DA) was added to the wells and the plate was incubated for 30-60 min. The wells were washed thrice with PBS and treated with CLEFMA in culture medium for 24 and 48 h. After the incubation period, the medium was removed and the cells were gently washed 2-3 times with PBS, and the fluorescence, indicating ROS activity, was measured at 480 nm/530 nm (excitation/emission wavelengths) using the Cytoflour 2300 (Millipore, Billerica, Mass.).

Structure (SMILES): O=C(O)C=CC(=O)N1CC(=Cc2ccccc2Cl)C(=O)C(=Cc2ccccc2Cl)C1 [Compound 29, 4-[3,5-Bis-(2-chlorobenzylidene)-4-oxo-piperidin-1-yl]-4-oxo-2-butenoic acid]
- effect on normal lung fibroblasts [1]: essentially remained unscathed
- antiproliferative activity versus PAX, GMCB, DOX, CUR ([2]; 10 and 20 μM): antiproliferative activity comparable to that shown by these drugs
- effect of co-administered CAT, SOD, NAC on cytotoxicity ([2]; CLEFMA 10 and 20 μM): partially rescue CLEFMA-induced cytotoxicity
- histopathological toxicity in liver, lung and kidney [3]: no toxicities in these tissues
- GSH/GSSG ratio [4]: strong dose-dependent reduction of the GSH/GSSG ratio
- ROS production [5]: did not increase ROS production in normal lung fibroblasts
